# Data from patent publication US12509460B2 (Skyhawk Therapeutics, Inc., priority 2019, dated 2025).
# Like-named read-outs stand apart in the source and are kept apart here.
# Columns and labels:
# [1] = Quantitative splicing assay (HTT), qPCR; format: cell-based, human; details: Homo sapiens, GM04724, 24 h, GM04724 lymphoblasts, read-out: HTT Splicing: E49-50 EC50
# How it was run: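 Patient lymphoblasts (50,000 cells/well) dosed immediately after plating for 24 h at 2.5 uM to 0.15 nM in 0.1% DMSO. Lysed, cDNA made directly from cells, and inclusion of the intron 49 cryptic exon quantified by TaqMan qPCR.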
# [2] = tested on: mHTT protein in GM04724 (CAG 70/20) Huntington's disease patient lymphoblast cells; experiment: mHTT protein assay, 2B7-MW1 assay via Mesoscale Discovery (MSD); format: cell-based, human
# How it was run: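 Patient lymphoblasts treated 48 h with compound from 10 μM to 0.6 nM. mHTT quantified by MSD 2B7-MW1 immunoassay, whose signal depends on polyQ expansion and HTT size. Viability measured on a replicate plate by CellTiter Glo.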
# [3] = tested on: SMN FL and SMN Δ7 in spinal muscular atrophy (SMA) patient fibroblasts (GM03813, Coriell); experiment: Quantitative splicing assay (SMN), qPCR; format: cell-based, human; details: Homo sapiens, Fibroblast, 24 h, read-out: SMN2 Splicing FL EC50
# Description: Spinal muscular atrophy (SMA) patient fibroblasts (GM03813, Coriell) are plated in 96-well plates at 50,000 cells/well. […] Treated cells are lysed and cDNA synthesized using the Fast Advanced Cells-to-Ct kit (Thermofisher A35378) according to the manufacturer's instructions. 2 μL of each cDNA are used in qPCR reactions. […] Reactions are run in a Quant Studio 6 qPCR instrument with default settings.
# [4] = tested on: SMN protein in spinal muscular atrophy (SMA) patient fibroblasts (GM03813, Coriell); experiment: SMN protein assay, Mesoscale Discovery (MSD); format: cell-based, human; details: for EC50: read-out: SMN2 protein EC50
# How it was run: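 SMA patient fibroblasts (GM03813) seeded at 7000 cells/well and exposed to compound at 2.5 μM to 0.6 nM for 48 hours. Lysates assayed for SMN by MSD immunoassay, with absolute SMN amount calculated from a per-plate SMN standard curve (1 μg/ml to 19.5 pg/ml).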
# MDR1 (P-gp) = experiment: Blood-brain-barrier (BBB) penetration potential via MDCK-MDR1 permeability assay; details: dog; for Papp A→B at 120 min, 5 μM: MDCK-MDR1, pH 7.4, MDCK-MDR1: Papp A-B; for Papp B→A at 120 min, 5 μM: MDCK-MDR1, pH 7.4, MDCK-MDR1: Papp B-A
# [5] = tested on: MDR1-MDCK cell monolayers; experiment: as above
# MDR1 = experiment: as above; details: dog, MDCK-MDR1, pH 7.4, MDCK-MDR1: Efflux
# [6] = GM04724 Huntington's disease patient lymphoblasts
# [7] = SMA patient fibroblasts GM03813, 24 h, qPCR
# [8] = SMA patient fibroblasts GM03813, 48 hours, MSD
# [9] = GM04724 (CAG 70/20) Huntington's disease patient lymphoblasts
# [10] = SMA patient fibroblasts (GM03813)
# [11] = SMA patient fibroblasts (GM03813), 48 hours
Structure (SMILES),EC50 ([1]; qPCR),"EC50 [2, 6]","EC50 [3, 7]","EC50 [4, 8]","Papp A→B at 120 min, 5 μM (MDR1 (P-gp); A-B direction)","Papp B→A at 120 min, 5 μM (MDR1 (P-gp); B-A direction)",MDCK-MDR1: % Recov A-B ([5]; A-B direction),MDCK-MDR1: % Recov B-A ([5]; B-A direction),"efflux ratio at 120 min, 5 μM (MDR1; efflux ratio)",EC50 [1],"EC50 [2, 9]","EC50 [3, 10]","EC50 [4, 11]","Papp A→B at 120 min, 5 μM (MDR1 (P-gp); A-B)","Papp B→A at 120 min, 5 μM (MDR1 (P-gp); B-A)",MDCK-MDR1: % Recov A-B ([5]; A-B),MDCK-MDR1: % Recov B-A ([5]; B-A),"efflux ratio at 120 min, 5 μM (MDR1)","SMN2 protein EC50 [4, 11]"
"CN(c1ccc(-c2cc3ccn(C)c(=O)c3cc2O)nn1)[C@@H]1C[C@H]2CC[C@H](N2)[C@@H]1F [Compound 84A, 6-(6-(((1S,2S,3R,5R)-2-fluoro-8-azabicyclo[3.2.1]octan-3-yl)(methyl)amino)pyridazin-3-yl)-7-hydroxy-2-methylisoquinolin-1(2H)-one]",16 to 50 nM,0.01 to 15 nM,16 to 50 nM,0.01 to 15 nM,0.9 ×10⁻⁶ cm/s,52 ×10⁻⁶ cm/s,92%,90%,58,–,–,–,–,–,–,–,–,–,–
"CN(c1ccc(-c2cc3ccn(C)c(=O)c3cc2O)nn1)[C@H]1C[C@@H]2CC[C@@H](N2)[C@H]1F [Compound 84B, 6-(6-(((1R,2R,3S,5S)-2-fluoro-8-azabicyclo[3.2.1]octan-3-yl)(methyl)amino)pyridazin-3-yl)-7-hydroxy-2-methylisoquinolin-1(2H)-one]",0.01 to 15 nM,0.01 to 15 nM,0.01 to 15 nM,0.01 to 15 nM,1.06 ×10⁻⁶ cm/s,50.9 ×10⁻⁶ cm/s,112%,76%,48,–,–,–,–,–,–,–,–,–,–
"CN(c1ccc(-c2cc3c(=O)n(C)cnc3cc2O)nn1)[C@@H]1C[C@H]2CC[C@H](N2)[C@@H]1F [Compound 85A, 6-(6-(((1S,2S,3R,5R)-2-fluoro-8-azabicyclo[3.2.1]octan-3-yl)(methyl)amino)pyridazin-3-yl)-7-hydroxy-3-methylquinazolin-4(3H)-one]",16 to 50 nM,0.01 to 15 nM,16 to 50 nM,0.01 to 15 nM,0.67 ×10⁻⁶ cm/s,49.2 ×10⁻⁶ cm/s,99%,99%,74,–,–,–,–,–,–,–,–,–,–
"CN(c1ccc(-c2cc3c(=O)n(C)cnc3cc2O)nn1)[C@H]1C[C@@H]2CC[C@@H](N2)[C@H]1F [Compound 85B, 6-(6-(((1R,2R,3S,5S)-2-fluoro-8-azabicyclo[3.2.1]octan-3-yl)(methyl)amino)pyridazin-3-yl)-7-hydroxy-3-methylquinazolin-4(3H)-one]",0.01 to 15 nM,0.01 to 15 nM,0.01 to 15 nM,0.01 to 15 nM,0.71 ×10⁻⁶ cm/s,48.5 ×10⁻⁶ cm/s,98%,103%,68,–,–,–,–,–,–,–,–,–,–
"CN(c1ccc(-c2cc3nccnc3cc2O)nn1)[C@H]1C[C@@H]2CC[C@@H](N2)[C@H]1F [Compound 88B, 7-(6-(((1R,2R,3S,5S)-2-fluoro-8-azabicyclo[3.2.1]octan-3-yl)(methyl)amino)pyridazin-3-yl)quinoxalin-6-ol]",16 to 50 nM,16 to 50 nM,16 to 50 nM,0.01 to 15 nM,6.88 ×10⁻⁶ cm/s,50.5 ×10⁻⁶ cm/s,84%,93%,7,–,–,–,–,–,–,–,–,–,–
"CN(c1ccc(-c2ccc(-n3nccn3)cc2O)nn1)[C@@H]1C[C@H]2CC[C@H](N2)[C@@H]1F [Compound 90A, 2-(6-(((1S,2S,3R,5R)-2-fluoro-8-azabicyclo[3.2.1]octan-3-yl)(methyl)amino)pyridazin-3-yl)-5-(2H-1,2,3-triazol-2-yl)phenol]",0.01 to 15 nM,0.01 to 15 nM,0.01 to 15 nM,0.01 to 15 nM,6.97 ×10⁻⁶ cm/s,22.5 ×10⁻⁶ cm/s,41%,69%,3,–,–,–,–,–,–,–,–,–,–
"CN(c1ccc(-c2ccc(-n3nccn3)cc2O)nn1)[C@H]1C[C@@H]2CC[C@@H](N2)[C@H]1F [Compound 90B, 2-(6-(((1R,2R,3S,5S)-2-fluoro-8-azabicyclo[3.2.1]octan-3-yl)(methyl)amino)pyridazin-3-yl)-5-(2H-1,2,3-triazol-2-yl)phenol]",0.01 to 15 nM,0.01 to 15 nM,0.01 to 15 nM,16 to 50 nM,6.56 ×10⁻⁶ cm/s,16.1 ×10⁻⁶ cm/s,43%,67%,2,–,–,–,–,–,–,–,–,–,–
"CN(c1ccc(-c2cc3c(=O)n(C)ccc3cc2O)nn1)[C@@H]1C[C@H]2CC[C@@H]([C@@H]1F)N2C [Compound 98A, 7-(6-(((1S,2S,3R,5R)-2-fluoro-8-methyl-8-azabicyclo[3.2.1]octan-3-yl)(methyl)amino)pyridazin-3-yl)-6-hydroxy-2-methylisoquinolin-1(2H)-one]",–,–,–,–,–,–,–,–,–,101 to 500 nM,101 to 500 nM,101 to 500 nM,16 to 50 nM,4.11 ×10⁻⁶ cm/s,64.7 ×10⁻⁶ cm/s,86%,105%,16,–
"CN(c1ccc(-c2cc3c(=O)n(C)ccc3cc2O)nn1)[C@H]1C[C@@H]2CC[C@H]([C@H]1F)N2C [Compound 98B, 7-(6-(((1R,2R,3S,5S)-2-fluoro-8-methyl-8-azabicyclo[3.2.1]octan-3-yl)(methyl)amino)pyridazin-3-yl)-6-hydroxy-2-methylisoquinolin-1(2H)-one]",–,–,–,–,–,–,–,–,–,16 to 50 nM,16 to 50 nM,16 to 50 nM,16 to 50 nM,5.01 ×10⁻⁶ cm/s,52.6 ×10⁻⁶ cm/s,88%,87%,10,–
"Cc1nc2cc(-c3ccc(N(C)[C@H]4C[C@@H]5CC[C@H]([C@H]4F)N5C)nn3)c(O)cc2c(=O)n1C [Compound 105B, 7-(6-(((1R,2R,3S,5S)-2-fluoro-8-methyl-8-azabicyclo[3.2.1]octan-3-yl)(methyl)amino)pyridazin-3-yl)-6-hydroxy-2,3-dimethylquinazolin-4(3H)-one]",–,–,–,–,–,–,–,–,–,51 to 100 nM,16 to 50 nM,101 to 500 nM,–,1.28 ×10⁻⁶ cm/s,64.3 ×10⁻⁶ cm/s,114%,119%,50,E (501 ≤ E ≤ 10.000)
"CN(c1ccc(-c2cc3oc(C(=O)N4CCC4)cc3cc2O)nn1)[C@H]1C[C@@H]2CC[C@@H](N2)[C@H]1F [Compound 112B, azetidin-1-yl(6-(6-(((1R,2R,3S,5S)-2-fluoro-8-azabicyclo[3.2.1]octan-3-yl)(methyl)amino)pyridazin-3-yl)-5-hydroxybenzofuran-2-yl)methanone]",–,–,–,–,–,–,–,–,–,16 to 50 nM,0.01 to 15 nM,0.01 to 15 nM,0.01 to 15 nM,0.5 ×10⁻⁶ cm/s,47.3 ×10⁻⁶ cm/s,98%,81%,95,–
"Cc1nc2cc(-c3ccc(N(C)[C@@H]4C[C@H]5CC[C@H](N5)[C@@H]4F)nn3)c(O)cc2c(=O)n1C [Compound 114A, 7-(6-(((1S,2S,3R,5R)-2-fluoro-8-azabicyclo[3.2.1]octan-3-yl)(methyl)amino)pyridazin-3-yl)-6-hydroxy-2,3-dimethylquinazolin-4(3H)-one]",–,–,–,–,–,–,–,–,–,0.01 to 15 nM,0.01 to 15 nM,16 to 50 nM,0.01 to 15 nM,0.28 ×10⁻⁶ cm/s,37.8 ×10⁻⁶ cm/s,102%,102%,133,–
"Cc1nc2cc(-c3ccc(N(C)[C@H]4C[C@@H]5CC[C@@H](N5)[C@H]4F)nn3)c(O)cc2c(=O)n1C [Compound 114B, 7-(6-(((1R,2R,3S,5S)-2-fluoro-8-azabicyclo[3.2.1]octan-3-yl)(methyl)amino)pyridazin-3-yl)-6-hydroxy-2,3-dimethylquinazolin-4(3H)-one]",–,–,–,–,–,–,–,–,–,0.01 to 15 nM,0.01 to 15 nM,0.01 to 15 nM,0.01 to 15 nM,0.29 ×10⁻⁶ cm/s,43 ×10⁻⁶ cm/s,88%,94%,150,–
